Where “and” joins values, the source holds several entries; their conditions need not be identical. Identical values can stand only once.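 Step 1: Grow cells in 96-well plates. Step 2: Expose to compound for 48 hours at 5 concentrations. Step 3: Interpolate endpoints linearly; if unreached, use highest concentration. At the GI50, growth is halved. The concentration for full growth arrest is given as TGI.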
Legend:
Test in all cases: DTP human tumour cell line panel, 48 h
[1] = system: OVCAR-3 ovarian
[2] = system: PC-3 prostate
[3] = system: M14 melanoma
[4] = system: HOP-62 NSCLC
[5] = system: SNB-19 CNS
[6] = system: UACC-62 melanoma
[7] = system: MDA-MB-435
[8] = system: IGROV1 ovarian
[9] = system: SW-620 colon
[10] = system: MOLT-4 leukemia

Structure (SMILES)	GI50 [1] [µM]	TGI [1]	GI50 [2] [µM]	TGI [2]	GI50 [3] [µM]	TGI [3]	GI50 [4] [µM]	TGI [4]	GI50 [5] [µM]	TGI [5]	GI50 [6] [µM]	TGI [6]	GI50 [7] [µM]	TGI [7]	GI50 [8] [µM]	TGI [8]	GI50 [9] [µM]	TGI [9]	GI50 [10] [µM]	TGI [10] [µM]
C=C1C(=O)O[C@H]2[C@H]1CC/C(COC(=O)NCc1cccc(OC)c1)=C\CC[C@@]1(C)O[C@@H]21	1.6	3.29 µM	2.26	6.07 µM	2.08	5.16 µM	13.2	28.3 µM	6.42	20 µM	1.91	4.24 µM	1.5	3.22 µM	2.76	8.4 µM	1.52	3.28 µM	2.38	7.19
Clc1ccc2c(NCCN3CCN(c4ccnc(N5CCCC5)n4)CC3)ccnc2c1	5.3	21.2 µM	5.97	20.8 µM	1.91	3.61 µM	3.34	16.2 µM	7.06	28.7 µM	2.13	4.51 µM	1.96	4.54 µM	4.48	23.7 µM	2.05	4.31 µM	3.58	38.2
ClC1=C(Cl)C(Cl)=C(Cl)C1=Cc1ccc(Cl)cc1Cl	0.274	0.857 µM	0.393	1.64 µM	0.234	0.635 µM	0.396	3.57 µM	0.811	2.93 µM	0.192	0.495 µM	0.521	2.05 µM	0.404	3.19 µM	0.272	0.717 µM	0.3	0.98
CCOC(CN(C)C(=O)OCC(Cl)(Cl)Cl)OCC	–	> 100 µM	–	> 100 µM	–	> 100 µM	–	> 100 µM	–	> 100 µM	–	> 100 µM	–	> 100 µM	–	> 100 µM	–	> 100 µM	–	> 100
COc1cc2c(cc1-c1c(C)noc1C)ncc1[nH]c(=O)n([C@H](C)c3ccccn3)c12	1.05	> 47.9 µM	2.72	> 100 µM	3.19	> 100 µM	0.94	> 100 µM	1.16	> 100 µM	0.145	> 87.2 µM	0.474	> 100 µM	0.765	> 34.2 µM	28.1	> 100 µM	4.08	99.3
c1ccc([P+](CCC[P+](c2ccccc2)(c2ccccc2)c2ccccc2)(c2ccccc2)c2ccccc2)cc1	4.41	83.7 µM and 35.5 µM	3.26	81.1 µM	27.6	> 100 µM	18	> 100 µM	8.95	> 100 µM	–	> 100 µM	4.84	> 100 µM	14	> 100 µM	15	> 100 µM	35.9	> 100
Cc1cc(S(=O)(=O)Nc2nc3ccsc3c(=O)n2Cc2ccccc2)c(S)cc1Cl	24.3	53 µM	40.4	> 100 µM	21.8	49.6 µM	22.7	46.6 µM	32.4	> 100 µM	21.5	44.4 µM	29.3	91.6 µM	43.1	> 100 µM	34.1	> 100 µM	37.9	> 100
CC(C)c1ccc(O)c(O)c(=O)c1 (tested in a mixture with another compound)	–	> 100 µM	–	15.6 µM	–	15.5 µM	–	> 100 µM	–	> 100 µM	–	12.1 µM	–	> 100 µM	–	> 54.9 µM	–	> 100 µM	–	5.53
CN1CCN(c2ccc([N+](=O)[O-])c3no[n+]([O-])c23)CC1	0.241	1.29 µM and 0.753 µM	0.412	2.21 µM and 1.94 µM	0.177	1.7 µM and 0.927 µM	0.318	1.26 µM and 1.39 µM	–	4.82 µM and 2.24 µM	0.471	2.64 µM and 1.84 µM	0.642	2.51 µM and 1.99 µM	0.0516	0.919 µM and 0.362 µM	0.117	0.828 µM and 0.261 µM	0.0645	–
